Experimental findings from US20210128735A1, “BIOCOMPATIBLE COPOLYMER CONTAINING MULTIPLE ACTIVE AGENT MOLECULES” (priority 2018, published 2021) are described below.

The data set relates to HepG2 cells. Kind of data set: Exploratory toxicity: eight cell health parameters (CHP) by automated fluorescent cellular imaging (ArrayScan). It counts as cell-based. Particulars: for MTD (row Cell count): concentration at which <20% cell loss was observed; for AC50: Homo sapiens. As for the experimental part:
The polymeric carriers of this disclosure are not biodegradable. […] An exploratory toxicity study of a polymeric carrier of the present disclosure (without payload) was performed. Briefly, HepG2 cells were plated on 96-well black walled, clear bottomed polystyrene plates at 100 μL per well. Test compound was a H2N-G3-Cellophil copolymer (12 kDa) containing DMA and AK (90/10 mol %) that was prepared by the procedure described in example 13, step 7. The HepG2 cells were dosed with test compound at concentrations from 0.04 to 100 μM. At the end of 72-h incubation at 37° C., appropriate dies or antibodies were added to the cultures. The plates were then scanned using an automated fluorescent cellular imager (ArrayScan®, Thermo Scientific Cellomics).
The following eight cell health parameters (CHP) were evaluated:
Cell count: A decreasing number of cells per well indicates toxicity due to necrosis, apoptosis or a reduction in cellular proliferation. Nuclear size: An increase in nuclear area can indicate necrosis or G2 cell cycle arrest, and a decrease can indicate apoptosis. DNA structure: An increase in DNA structure can indicate chromosomal instability and DNA fragmentation. Mitochondrial mass: A decrease in mitochondrial mass indicates loss of total mitochondria and an increase implies mitochondrial swelling or an adaptive response to cellular energy demands. Mitochondrial membrane potential (Δψm): A decrease indicates a loss of mitochondrial integrity, typically resulting in apoptotic signaling; an increase in mitochondrial membrane potential indicates an adaptive response to cellular energy demands. Oxidative stress: An increase in reactive oxygen species (ROS) is an early cytotoxic response. Glutathione content: A decrease in glutathione (GSH) content can result from production of ROS or from direct binding to tested compound. An increase in GSH content represents an adaptive cellular response to oxidative stress. Cellular ATP: After cell lysis, ATP is released from the cell. Cells which are not metabolically active will not release any ATP. Therefore, a decrease in metabolically active cells will result in a decrease in the level of ATP detected.

The mark [1] stands for this setting: HepG2, 72-h incubation, NR = no response.

Read-outs that look alike come from different tables or passages of the source.

Usually AC50 stands for the concentration giving half of the maximal activity seen. Take `N#CC(C#N)=NNc1cccc(Cl)c1` [control 1, carbonyl cyanide 3-chlorophenylhydrazone]: the “MEC, Cell count” value (HepG2, 72-h incubation at 37° C., 0.04 to 100 μM, MEC = lowest dose at which an effect is detected, NR = no response) amounted to 1.73 µM. The “MEC, Cellular ATP” value under setting [1] was found to be 3.13 µM. Besides, the “MEC, Nuclear size” value under setting [1] was 3.76 µM. In addition, the “MEC, Oxidative stress” value under setting [1] came out at 0.539 µM. For the same compound, the “MEC, DNA structure” value (HepG2, 72-h incubation, NR = no response, NS = not statistical significant) is 0.63 µM. Moreover, the “MTD (row Cell count)” value under setting [1] came to 2 µM. The AC50 (HepG2, 72-h incubation, NR = no response, NS = not statistical significant, read-out: AC50, DNA structure) is 46.7 µM; the AC50 (HepG2, 72-h incubation, NR = no response, read-out: AC50, Cellular ATP) is 4.15 µM; the AC50 (HepG2, 72-h incubation, NR = no response, read-out: AC50, Glutathione content) is more than 100 µM; the AC50 (HepG2, 72-h incubation, NR = no response, read-out: AC50, Mitochondrial mass) is more than 100 µM; the AC50 (HepG2, 72-h incubation, NR = no response, read-out: AC50, Mitochondrial membrane potential) is more than 100 µM; the AC50 (HepG2, 72-h incubation, NR = no response, read-out: AC50, Nuclear size) came out at 8.09 µM. Moreover, the AC50 reads like this: (HepG2, 72-h incubation, NR = no response, read-out: AC50, Oxidative stress) 22.4 µM; (HepG2, 72-h incubation, concentration at which 50% of the maximum effect is observed, NR = no response, read-out: AC50, Cell count) 2.54 µM.

Regarding `CCCCS(=N)(=O)CCC(N)C(=O)O` [control 2, L-buthionine-sulfoximine], the “MEC, Cellular ATP” value came to 14.4 µM and the “MEC, Glutathione content” value amounted to 1.7 µM. Moreover, the “MTD (row Cell count)” value under setting [1] is 40 µM.
